Assay results published in paper PMC3479135, “Crystal Structures of Bovine CD1d Reveal Altered αGalCer Presentation and a Restricted A’ Pocket Unable to Bind Long-Chain Glycolipids” (PLoS ONE, 2012).

Molecular target: T1, boCD1d (bovine CD1d ectodomain with boβ2M) (Bos taurus, UniProt A1L565)
T1 construct: heavy-chain ectodomain (α1-α3), endogenous leader replaced by boCD1b3 leader, C-terminal hexa-His tag, no Fc; co-expressed with bovine β2m in baculovirus/insect cells; non-covalent heterodimer; N-glycosylated at Asn20 and Asn42; with Beta-2-microglobulin
Experiment: X-ray crystal structure, […] Å; native IEF gel shift
Assay type: binding
Settings: crystallised in 20% PEG 3350, 0.2 M sodium formate; IEF loading overnight at room temperature, 100 mM Tris-HCl pH 7, no Tween 20; A' and F' pockets

T1 sequence (A1L565 129-405): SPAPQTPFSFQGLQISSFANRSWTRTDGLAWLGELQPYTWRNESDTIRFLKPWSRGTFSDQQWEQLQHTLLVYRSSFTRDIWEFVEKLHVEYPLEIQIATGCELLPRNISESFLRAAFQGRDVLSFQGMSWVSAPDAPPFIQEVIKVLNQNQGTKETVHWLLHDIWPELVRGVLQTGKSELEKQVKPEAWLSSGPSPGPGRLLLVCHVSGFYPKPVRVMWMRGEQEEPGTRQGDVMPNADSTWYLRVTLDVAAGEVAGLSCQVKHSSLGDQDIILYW
T1 sequence (P01888 21-118 partner): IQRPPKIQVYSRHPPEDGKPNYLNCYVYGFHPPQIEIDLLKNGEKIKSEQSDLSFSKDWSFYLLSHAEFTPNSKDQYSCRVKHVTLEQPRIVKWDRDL

CCCCCCCCCCCCC/C=C/[C@@H](O)[C@H](CO[C@@H]1O[C@H](COS(=O)(=O)O)[C@H](O)[C@H](OS(=O)(=O)O)[C@H]1O)NC(=O)CCCCCCCCCCC [compound 2, C12∶0-di-sulfatide]
X-ray crystal structure, 2.9 Å; native IEF gel shift: we crystallized boCD1d in complex with synthetic C12∶0-di-sulfatide (di-SLF)
